Assay results published in patent publication US20140248291A1, “Modulation of Cellular Migration” (THE UAB RESEARCH FOUNDATION, priority 2011, published 2014).

Columns and labels:
[1] = system: MMP gelatinase activity of D54 MG cells; test: in-situ zymography of gelatinolytic MMP activity (DQ gelatin); assay type: cell-based, human; settings: BK plus B2R antagonist
Procedure: To assess gelatinolytic MMP activity we used in situ zymography, as described previously (Deshane J et al, 2003). Briefly, after cell nuclei were labeled with Hoechst dye, fluorescein isothiocyanate-labeled DQ gelatin with BK+/−antagonists (Molecular Probes, Eugene, Oreg.) was applied overnight on the coverslips plated with D54 MG cells. Coverslips where drugs were omitted were processed in parallel and used as controls. At the end of the incubation period, cells were photographed by fluorescence microscopy with a Zeiss Axiovert 200 M microscope using a 20× objective. Quantification of fluorescent staining intensity after background subtraction was done using Slidebook 4.2 software (Intelligent Imaging Innovations, Denver, Colo.). Experiments were repeated three times.
To investigate the hypothesis that BK promotes glioma migration in vitro, we used Transwell migration assay which conveniently permit examination of cell migration across a membrane barrier with 8 μm pores towards vitronectin, a chemo-attractant extracellular matrix protein. This frequently used assay allows a quantitative study of drug effects with regards to drugs acting as motogens or as chemo-attractants. D54-MG-GFP glioma cells were allowed to migrate for 5 h in the presence/absence of neuroligands. […] Next, we tested glioma cell migration in various BK concentrations. […]

D54-MG-GFP cells = test: time-lapse motility assay in BK concentration gradient, D54-MG-GFP; assay type: cell-based, human; settings: for cells moved towards increasing BK concentration: BK gradient in presence of antagonist, cells moving in random fashion; for directionality of movement: antagonist in addition to BK
Procedure: Time-lapse studies were performed using a stably transfected daughter cell line from D54-MG cells that express EGFP, previously generated in the lab (Habela et al., 2009) and U251-EGFP cell line to visualize cells as they migrate. Increased motility was tested using an Ibidi chemotaxis chamber that is commercially available from Ibidi Scientific (Ibidi GmbH, Martinsried, Germany), and which has been used in previous studies (Kronlage et al., 2010; Fabian et al., 2010) with D54-EGFP MG cells seeded. Liquid chemical gradients were established in the μ-channel of the μ-chamber as follows: the dye Patent Blue V Blue Sodium Salt (1 mg/ml in medium) was mixed with equivolume of medium+/−1 mM stock of BK+/−1 mM stocks of HOE-140 or BZ; half of the volume was loaded in the well at one side of the μ-channel, and the identical volume was then aspirated from the well on the other side of the μ-channel. This created concentration gradient easily visualized by the dye. 12-15 different positions along the concentration gradient were imaged every 5 minutes over 5 hours period on a Zeiss Axiovert 200M system equipped with a Zeiss micro-incubation chamber that maintains cells at constant temperature (37° C.) and 95%/5% CO2/O2 for extended periods of time. We obtained images from different sections using 20× objective and FITC filter, along with DIC images. 500× neutral density filters and capture images using Axiovision software and a digital Axiocam HR 1 megapixel camera in 2*2 binning mode was used. Data was analyzed using the imaging tools provided by National Institutes of Health Image J and Tracking, and Chemotaxis and Migration Tool plugins (Jacobelli et al., 2009; Coller et al., 2009; Kronlage et al., 2010; Fabian et al., 2010) by randomly selecting 15 cells for each field of view. Cells treated with BK+/−antagonists were compared with controls where only dye was added. These experiments were repeated in triplicates.
As calcium dynamics are often correlated with cell motility time-lapse studies were performed using a stably transfected daughter cell line from D54-MG cells that expresses GFP to visualize cells as they migrate (FIG. 3A). Increased motility was tested in μ-slides in which a BK concentration gradient can be maintained.

B2R = target: T1, B2R (Homo sapiens, UniProt P30411); test: calcium imaging (Fura-2), BK response with B2R antagonists; assay type: cell-based; settings: BK in presence of the B2R antagonist; for average peak of Ca2+ response: p<0.001 vs BK
T1 construct: endogenous in cells; host or cells: D54-MG / D54-MG-GFP human glioma cells
T1 sequence (P30411 1-391): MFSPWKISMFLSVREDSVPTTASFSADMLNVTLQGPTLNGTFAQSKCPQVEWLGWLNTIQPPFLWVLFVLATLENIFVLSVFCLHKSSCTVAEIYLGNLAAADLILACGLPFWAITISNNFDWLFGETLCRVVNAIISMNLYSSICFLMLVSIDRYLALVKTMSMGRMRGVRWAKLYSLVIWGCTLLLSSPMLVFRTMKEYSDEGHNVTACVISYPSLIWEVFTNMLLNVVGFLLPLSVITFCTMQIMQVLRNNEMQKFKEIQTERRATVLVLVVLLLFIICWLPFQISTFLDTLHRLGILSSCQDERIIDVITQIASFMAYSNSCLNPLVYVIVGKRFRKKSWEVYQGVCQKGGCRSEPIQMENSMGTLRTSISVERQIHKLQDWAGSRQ
Procedure: D54-MG cells were plated on 35-mm glass bottom dishes (MatTek, Corp., Ashland, Mass.) at ˜100×10^3 per dish and cultured for 2 days. pTRIPZ transfected cells, after stable selection, were plated at a density of ˜20×10^3 per dish and treated with […] doxycycline for 4 to 5 days to allow for sufficient protein knockdown. All cells were loaded in serum-free culture medium for 45 min with the ratiometric Ca^2+ dye Fura-2-acetoxymethylester (5 μmol/L; TEFLABS, Austin, Tex.) reconstituted in 20% wiv pluronic acid in DMSO (Invitrogen, Carlsbad, Calif.). Cells were rinsed with serum-free medium and allowed to rest in 7% serum-containing medium for 45 min at 37° C. The glass-bottom dishes were placed in an environmental chamber mounted on an inverted microscope. Cells were allowed to equilibrate in the chamber for 15 min before calcium images were collected. Following equilibration, recordings were obtained with an Olympus Disk Spinning Unit (DSU) fluorescent imaging microscope where cells were alternately excited at 340 and 380 nm using an x-cite illumination light source. Emitted light was collected at >520 nm. Images were digitized online using Slidebook 4.2 software (Intelligent Imaging Innovations, Denver, Colo.), and 340:380 nm ratios were obtained every 15 seconds. Following a 5 minute baseline recording every 15 seconds, BK was applied to the cells and imaging continued every 15 seconds for 30 or 60 minutes. In a subset of experiments, BK antagonists, HOE-140 and Bradyzide were applied to the cells. These experiments were repeated at least three times and data were pooled for statistical analysis.
Glioma cells respond to environmental clues as they invade the brain. It has been previously shown that the exposure of glioma cells to certain neuroligands induces increase in intracellular calcium concentrations. In this series of experiments, we investigated Ca^2+-responses in cultured D54-MG glioma cells, after addition of acetylcholine (ACh), ATP or BK. Glioma cells were loaded with the ratiometric Ca^2+-dye FURA2-AM, and imaged over 30 min.

| SMILES | MMP activity (fluorescence of DQ gelatin) [1] | cells moved towards increasing BK concentration (D54-MG-GFP cells) | directionality of movement (D54-MG-GFP cells) | cells responded / cells imaged (B2R) | average peak of Ca2+ response (B2R) |
| --- | --- | --- | --- | --- | --- |
| N=C(N)NCCCC(NC(=O)[C@H](N)CCCNC(=N)N)C(=O)N1CCC[C@H]1C(=O)N1C[C@H](O)C[C@H]1C(=O)NCC(=O)N[C@@H](Cc1cccs1)C(=O)N[C@@H](CO)C(=O)N1Cc2ccccc2C[C@@H]1C(=O)N1C2CCCCC2C[C@H]1C(=O)N[C@H](CCCNC(=N)N)C(=O)O (stereo partly drawn) [HOE-140, D-Arg-[Hyp^3, Thi^5, D-Tic^7, Oic^8]bradykinin] | reduction of the fluorescence back to control levels | 8/15 | failed to show any directionality of movement | 22/162 | 0.15±0.01 |
| CN(C)CCN(C)CCNC(=O)[C@@H]1CCCN1S(=O)(=O)c1ccc(NNC(=S)NC(c2ccccc2)c2ccccc2)c([N+](=O)[O-])c1 [Bradyzide] | reduction of the fluorescence back to control levels | 6/15 | failed to show any directionality of movement | 156/300 | 0.15±0.02 |
